Test results: US20250388605A1, “HETEROBIFUNCTIONAL COMPOUNDS AND METHODS OF TREATING DISEASE” (Halda Therapeutics OpCo, Inc., priority 2022, published 2025)
One block for each molecule: values may come before it.

Legend:
[1] = test system: T47D cells; experiment: Cellular Growth Inhibition Assay for T47D Cells (CellTiter-Glo); format: cell-based, human; settings: 72 hours
Method in brief: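 GI50 values derive from four-parameter regression of CellTiter-Glo 2.0 luminescence, using zero luminescence as baseline. Human breast cancer T47D cells (3000/well; DMEM, 10% FBS, 0.2 units/mL insulin) were exposed for 72 h to compound dilutions at 0.5% DMSO, with dosing starting 24 h after seeding.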

[2] = test system: T-Rex 293 cell line SC3 cells lacking increased expression of androgen receptor protein; experiment: Cellular growth inhibition, T-Rex 293 SC3 cells without doxycycline (no increased androgen receptor expression), CellTiter-Glo; format: cell-based; settings: T-Rex 293 SC3 cells not exposed to doxycycline (no increased androgen receptor expression), 72 hours
Method in brief: (§1)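 Doxycycline (10 ng/mL) was either included or omitted to toggle wild-type androgen receptor expression in SC3 cells, a T-Rex 293 clone, grown in stripped-serum, phenol red-free medium. After 72 hours with compound, viable cells were quantified by CellTiter-Glo 2.0.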

[3] = test system: T-Rex 293 cell line SC3 cells having increased expression of androgen receptor protein due to exposure to doxycycline; experiment: Cellular growth inhibition, T-Rex 293 SC3 cells with doxycycline (increased androgen receptor expression), CellTiter-Glo; format: cell-based; settings: T-Rex 293 SC3 cells with 10 ng/mL doxycycline (increased androgen receptor expression), 72 hours, CellTiter-Glo 2.0
Method in brief: as §1

[4] = test system: VCaP cells; experiment: Cellular growth inhibition assay for VCaP cells, CellTiter-Glo; format: cell-based, human; settings: 72 hours
Method in brief: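 GI50 values come from four-parameter curve fits of luminescence data normalized to a zero baseline. Compound, in medium with 0.5% DMSO, was added one day after plating and left for 72 h before CellTiter-Glo 2.0 addition.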

SMILES: Cn1cc(-c2cc(C(C)(C)O)ccc2Oc2cccc(OC3CC4(C3)CN(c3ncc(C(=O)N[C@H]5C(C)(C)[C@H](Oc6ccc(C#N)c(Cl)c6)C5(C)C)cn3)C4)c2)c2cc[nH]c2c1=O [Compound I-320]
GI50 [1]: < 500 nM
GI50 [2]: < 500 nM
GI50 [3]: < 500 nM
GI50 [4]: < 500 nM

SMILES: Cn1cc(-c2ccccc2Oc2cccc(OCCC3CCN(c4ncc(C(=O)N[C@H]5C(C)(C)[C@H](Oc6ccc(C#N)c(Cl)c6)C5(C)C)cn4)CC3)c2)c2cc[nH]c2c1=O [Compound I-102]
GI50 ([1]; Homo sapiens): 1500 to 3000 nM
GI50 [2]: 500 to 1500 nM
GI50 [3]: < 500 nM
GI50 ([4]; Homo sapiens): < 500 nM

SMILES: Cn1cc(-c2cc(C(C)(C)O)ccc2Oc2ccc(N3CC(CC4CCN(c5cnc(C(=O)N[C@H]6C(C)(C)[C@H](Oc7ccc(C#N)c(Cl)c7)C6(C)C)cn5)CC4)C3)nc2)c2cc[nH]c2c1=O [Compound I-334]
GI50 ([1]; Homo sapiens): < 500 nM
GI50 [2]: > 3000 nM
GI50 [3]: < 500 nM
GI50 ([4]; Homo sapiens): < 500 nM

SMILES: Cn1cc(-c2cc(C(C)(C)O)ccc2Oc2ccc(CCC3CCN(c4ncc(C(=O)N[C@H]5C(C)(C)[C@H](Oc6ccc(C#N)c(Cl)c6)C5(C)C)cn4)CC3)nc2)c2cc[nH]c2c1=O [Compound I-302]
GI50 [1]: 500 to 1500 nM
GI50 [2]: 500 to 1500 nM
GI50 [3]: < 500 nM
GI50 [4]: < 500 nM

SMILES: Cn1cc(-c2cc(C(C)(C)O)ccc2Oc2ccc(CC3CC(C4CCCN(c5ncc(C(=O)N[C@H]6C(C)(C)[C@H](Oc7ccc(C#N)c(Cl)c7)C6(C)C)cn5)C4)C3)cc2)c2cc[nH]c2c1=O (single isomer, unassigned) [Compound I-349]
GI50 [1]: < 500 nM
GI50 [2]: > 3000 nM
GI50 [3]: > 3000 nM
GI50 [4]: < 500 nM

SMILES: CCS(=O)(=O)c1ccc(OC2CC(OC3CC4(CCN(c5ncc(C(=O)NC6C(C)(C)C(Oc7ccc(C#N)c(Cl)c7)C6(C)C)cn5)CC4)C3)C2)c(-c2cn(C)c(=O)c3[nH]ccc23)c1 (stereo not drawn) [Compound I-295, N-[3-(3-chloro-4-cyano-phenoxy)-2,2,4,4-tetramethyl-cyclobutyl]-2-[2-[3-[4-ethylsulfonyl-2-(6-methyl-7-oxo-1Hpyrrolo[2,3-c]pyridin-4-yl)phenoxy]cyclobutoxy]-7-azaspiro[3.5]nonan-7-yl]pyrimidine-5-carboxamide]
GI50 ([1]; Homo sapiens): < 500 nM
GI50 [2]: < 500 nM
GI50 [3]: < 500 nM
GI50 ([4]; Homo sapiens): < 500 nM

SMILES: CC(C)c1ccc(Oc2cccc(CCCN3CCN(c4ncc(C(=O)NC5C(C)(C)C(Oc6ccc(C#N)c(Cl)c6)C5(C)C)cn4)CC3)c2)c(-c2cn(C)c(=O)c3[nH]ccc23)c1 (stereo not drawn) [Compound I-125, N-[3-(3-chloro-4-cyano-phenoxy)-2,2,4,4-tetramethyl-cyclobutyl]-2-[4-[3-[3-[4-isopropyl-2-(6-methyl-7-oxo-1H-pyrrolo[2,3-c]pyridin-4-yl)phenoxy]phenyl]propyl]piperazin-1-yl]pyrimidine-5-carboxamide]
GI50 ([1]; Homo sapiens): 1500 to 3000 nM
GI50 [2]: > 3000 nM
GI50 [3]: < 500 nM
GI50 ([4]; Homo sapiens): < 500 nM

SMILES: CCS(=O)(=O)Nc1ccc(Oc2ccc(OCC3CCN(c4ncc(C(=O)N[C@H]5C(C)(C)[C@H](Oc6ccc(Cl)c(C#N)c6)C5(C)C)cn4)CC3)cc2)c(-c2cn(C)c(=O)c3[nH]ccc23)c1 [Compound I-277]
GI50 [1]: < 500 nM
GI50 [2]: < 500 nM
GI50 [3]: < 500 nM
GI50 [4]: < 500 nM

SMILES: Cn1cc(-c2cc(C(C)(C)O)ccc2Oc2ccc(CN3CC4(C3)CN(c3ncc(C(=O)N[C@H]5C(C)(C)[C@H](Oc6ccc(C#N)c(Cl)c6)C5(C)C)cn3)CCO4)cc2)c2cc[nH]c2c1=O [Compound I-300]
GI50 [1]: < 500 nM
GI50 [2]: < 500 nM
GI50 [3]: < 500 nM
GI50 [4]: < 500 nM

SMILES: Cn1cc(-c2cc(C(C)(C)O)ccc2Oc2cccc(CC3CCC4(CC3)CCN(c3ncc(C(=O)N[C@H]5C(C)(C)[C@H](Oc6ccc(C#N)c(Cl)c6)C5(C)C)cn3)CC4)c2)c2cc[nH]c2c1=O [Compound I-318]
GI50 [1]: < 500 nM
GI50 [2]: > 3000 nM
GI50 [3]: < 500 nM
GI50 [4]: > 3000 nM

SMILES: Cn1cc(-c2cc(C(C)(C)O)ccc2Oc2ccc(N3CC4(CCCN(c5ncc(C(=O)N[C@H]6C(C)(C)[C@H](Oc7ccc(C#N)c(Cl)c7)C6(C)C)cn5)C4)C3)cc2)c2cc[nH]c2c1=O [Compound I-343]
GI50 [1]: < 500 nM
GI50 [2]: > 3000 nM
GI50 [3]: < 500 nM
GI50 [4]: < 500 nM

SMILES: Cn1cc(-c2cc(C(C)(C)O)ccc2Oc2cccc(N3CCC(CC4CCN(c5ncc(C(=O)N[C@H]6C(C)(C)[C@H](Oc7ccc(C#N)c(Cl)c7)C6(C)C)cn5)CC4)CC3)c2)c2cc[nH]c2c1=O [Compound I-325]
GI50 [1]: < 500 nM
GI50 [2]: > 3000 nM
GI50 [3]: < 500 nM
GI50 [4]: > 3000 nM

Second part, led by results:

GI50 ([1]; Homo sapiens): < 500 nM
GI50 ([4]; Homo sapiens): < 500 nM
SMILES: Cn1cc(-c2cc(C(C)(C)O)ccc2OC2CCC(N3CC(OC4CCN(c5ncc(C(=O)N[C@H]6C(C)(C)[C@H](Oc7ccc(C#N)c(Cl)c7)C6(C)C)cn5)CC4)C3)CC2)c2cc[nH]c2c1=O (stereo partly drawn) [Compound I-288, N-[3-(3-chloro-4-cyano-phenoxy)-2,2,4,4-tetramethyl-cyclobutyl]-2-[4-[1-[4-[4-(1-hydroxy-1-methyl-ethyl)-2-(6-methyl-7-oxo-1H-pyrrolo[2,3-c]pyridin-4-yl)phenoxy]cyclohexyl]azetidin-3-yl]oxy-1-piperidyl]pyrimidine-5-carboxamide]
GI50 [2]: < 500 nM
GI50 [3]: < 500 nM

GI50 ([1]; Homo sapiens): < 500 nM
GI50 ([4]; Homo sapiens): < 500 nM
SMILES: CCS(=O)(=O)Nc1ccc(Oc2cccc(OCC3CCN(c4ncc(C(=O)N[C@H]5C(C)(C)[C@H](Oc6ccc(C#N)c(Cl)c6)C5(C)C)cn4)CC3)c2)c(-c2cn(C)c(=O)c3[nH]ccc23)c1 [Compound I-25]
GI50 [2]: < 500 nM
GI50 [3]: < 500 nM

GI50 ([1]; Homo sapiens): < 500 nM
GI50 ([4]; Homo sapiens): < 500 nM
SMILES: CCS(=O)(=O)Nc1ccc(Oc2cccc(N(C)C3CCN(C4CCN(c5ncc(C(=O)N[C@H]6C(C)(C)[C@H](Oc7ccc(C#N)c(Cl)c7)C6(C)C)cn5)CC4)C3)c2)c(-c2cn(C)c(=O)c3[nH]ccc23)c1 (stereo partly drawn) [Compound I-42]
GI50 [2]: < 500 nM
GI50 [3]: < 500 nM

GI50 ([1]; Homo sapiens): 1500 to 3000 nM
GI50 ([4]; Homo sapiens): < 500 nM
SMILES: Cn1cc(-c2cc(N)ccc2Oc2cccc(OCCC3CCN(c4ncc(C(=O)N[C@H]5C(C)(C)[C@H](Oc6ccc(C#N)c(Cl)c6)C5(C)C)cn4)CC3)c2F)c2cc[nH]c2c1=O [Compound I-103]
GI50 [2]: > 3000 nM
GI50 [3]: < 500 nM

GI50 [1]: < 500 nM
GI50 [4]: < 500 nM
SMILES: CCS(=O)(=O)c1ccc(OC(CCCOC2CCN(c3ncc(C(=O)N[C@H]4C(C)(C)[C@H](Oc5ccc(C#N)c(Cl)c5)C4(C)C)cn3)CC2)C2CC2)c(-c2cn(C)c(=O)c3[nH]ccc23)c1 (stereo partly drawn) [Compound I-236]
GI50 [2]: < 500 nM
GI50 [3]: < 500 nM

GI50 ([1]; Homo sapiens): < 500 nM
GI50 ([4]; Homo sapiens): < 500 nM
SMILES: CCS(=O)(=O)Nc1ccc(Oc2cccc(C3CN(CC4CCN(c5ncc(C(=O)N[C@H]6C(C)(C)[C@H](Oc7ccc(C#N)c(Cl)c7)C6(C)C)cn5)CC4)C3)c2)c(-c2cn(C)c(=O)c3[nH]ccc23)c1 [Compound I-78]
GI50 [2]: < 500 nM
GI50 [3]: < 500 nM

GI50 [1]: 500 to 1500 nM
GI50 [4]: < 500 nM
SMILES: Cn1cc(-c2cc(C(C)(C)O)ccc2OC(CCCOC2CCN(c3ncc(C(=O)N[C@H]4C(C)(C)[C@H](Oc5ccc(C#N)c(Cl)c5)C4(C)C)cn3)CC2)C2CC2)c2cc[nH]c2c1=O (stereo partly drawn) [Compound I-244]
GI50 [2]: 500 to 1500 nM
GI50 [3]: < 500 nM

GI50 [1]: < 500 nM
GI50 [4]: < 500 nM
SMILES: CCS(=O)(=O)Nc1ccc(Oc2cccc(N3CC(N(C)C4CCN(c5ncc(C(=O)N[C@H]6C(C)(C)[C@H](Oc7ccc(C#N)c(Cl)c7)C6(C)C)cn5)CC4)C3)c2F)c(-c2cn(C)c(=O)c3[nH]ccc23)c1 [Compound I-178]
GI50 [2]: < 500 nM
GI50 [3]: < 500 nM

GI50 ([1]; Homo sapiens): 500 to 1500 nM
GI50 ([4]; Homo sapiens): < 500 nM
SMILES: Cn1cc(-c2cc(C(C)(C)O)ccc2Oc2ccc(CCOC3CCN(c4ncc(C(=O)N[C@H]5C(C)(C)[C@H](Oc6ccc(C#N)c(Cl)c6)C5(C)C)cn4)CC3)cn2)c2cc[nH]c2c1=O [Compound I-315]
GI50 [2]: > 3000 nM
GI50 [3]: < 500 nM

GI50 ([1]; Homo sapiens): < 500 nM
GI50 ([4]; Homo sapiens): < 500 nM
SMILES: CCS(=O)(=O)c1ccc(Oc2ccc(CCCC3CCN(c4ncc(C(=O)N[C@H]5C(C)(C)[C@H](Oc6ccc(C#N)c(Cl)c6)C5(C)C)cn4)CC3)c(F)c2)c(-c2cn(C)c(=O)c3[nH]ccc23)c1 [Compound I-285]
GI50 [2]: > 3000 nM
GI50 [3]: < 500 nM

GI50 ([1]; Homo sapiens): 500 to 1500 nM
GI50 ([4]; Homo sapiens): < 500 nM
SMILES: Cn1cc(-c2cc([N+](=O)[O-])ccc2Oc2cccc(OCCOC3CCN(c4ncc(C(=O)N[C@H]5C(C)(C)[C@H](Oc6ccc(C#N)c(Cl)c6)C5(C)C)cn4)CC3)c2)c2cc[nH]c2c1=O [Compound I-63, N-((1r, 3r)-3-(3-chloro-4-cyanophenoxy)-2,2,4,4-tetramethylcyclobutyl)-2-(4-(2-(3-(2-(6-methyl-7-oxo-6,7-dihydro-1H-pyrrolo[2,3-c]pyridin-4-yl)-4-nitrophenoxy)phenoxy)ethoxy)piperidin-1-yl)pyrimidine-5-carboxamide]
GI50 [2]: > 3000 nM
GI50 [3]: < 500 nM

GI50 ([1]; Homo sapiens): < 500 nM
GI50 ([4]; Homo sapiens): < 500 nM
SMILES: Cn1cc(-c2cc(C(C)(C)O)ccc2Oc2ccc(OC3CCN(c4ncc(C(=O)N[C@H]5C(C)(C)[C@H](Oc6ccc(C#N)c(Cl)c6)C5(C)C)cn4)CC3)nc2)c2cc[nH]c2c1=O [Compound I-297, N-[3-(3-chloro-4-cyano-phenoxy)-2,2,4,4-tetramethyl-cyclobutyl]-2-[4-[[5-[4-(1-hydroxy-1-methyl-ethyl)-2-(6-methyl-7-oxo-1H-pyrrolo[2,3-c]pyridin-4-yl)phenoxy]-2-pyridyl]oxy]-1-piperidyl]pyrimidine-5-carboxamide]
GI50 [2]: < 500 nM
GI50 [3]: < 500 nM
